Our source for the bioavailability values is ChEMBL document CHEMBL1141299, “Hologram QSAR model for the prediction of human oral bioavailability” (Bioorg Med Chem, 2007).

One data set is described as follows: Oral bioavailability in human. The following applies: in vivo.
As for `Cc1nc2n(c(=O)c1CCN1CCC(c3noc4cc(F)ccc34)CC1)CCCC2` [RISPERIDONE], the bioavailability (usually the share of a dose that reaches the circulation, judged against a reference dose that is usually intravenous) came to 70%.
As for `CNC(=O)Oc1ccc2c(c1)[C@]1(C)CCN(C)[C@@H]1N2C` [PHYSOSTIGMINE], the bioavailability worked out at 6%.
The molecule `CCN(CC)C(=O)[C@]1(c2ccccc2)C[C@@H]1CN` showed a bioavailability of 84%.
`CCN[C@H](C)Cc1cccc(C(F)(F)F)c1` [LEVOFENFLURAMINE] gave a bioavailability of 89%.
`CN1C(=O)[C@@H](O)N=C(c2ccccc2Cl)c2cc(Cl)ccc21` [(R)-LORMETAZEPAM] had a bioavailability of 75%.
Same read-out and setting: under `CCC(=O)C(C[C@@H](C)N(C)C)(c1ccccc1)c1ccccc1` [LEVOMETHADONE] stands 92%; under `O=C1Nc2ccc(Cl)cc2C(c2ccccc2Cl)=N[C@H]1O` [(S)-LORAZEPAM], 93%.
The molecule `C[C@]12CC[C@H]3[C@@H](CCC4=CC(=O)CC[C@@]43C)[C@@H]1CC[C@@H]2O` [TESTOSTERONE] had a bioavailability of 7%.
Take `N[C@@H](Cc1ccc(N(CCCl)CCCl)cc1)C(=O)O`: the bioavailability was found to be 71%.

Still in this data set, the particulars now being: in vivo, F.
Take `CNC(=C[N+](=O)[O-])NCCSCc1csc(CN(C)C)n1` [NIZATIDINE]: the bioavailability was 70%.
With `CCOC(=O)C1=C(C)NC(C)=C(C(=O)OC)[C@H]1c1cccc([N+](=O)[O-])c1` [(R)-NITRENDIPINE], the bioavailability came to 16%.
As for `Nc1nc(N)c2nc(-c3ccccc3)c(N)nc2n1`, the bioavailability turned out to be 51%.
Regarding `CCC1=C(C)CN(C(=O)NCCc2ccc(S(=O)(=O)NC(=O)N[C@H]3CC[C@H](C)CC3)cc2)C1=O` [GLIMEPIRIDE], the bioavailability is 100%.
Same read-out and setting: as for `CC[C@H](C)C(=O)O[C@H]1C[C@H](O)C=C2C=C[C@H](C)[C@H](CC[C@@H](O)C[C@@H](O)CC(=O)O)[C@H]21` [PRAVASTATIN], the figure is 17%; as for `CN(C)S(=O)(=O)c1ccc2c(c1)N(CCCN1CCC(CCO)CC1)c1ccccc1S2` [PIPOTIAZINE], 26%; as for `CCN1C[C@H](CCN2CCOCC2)C(c2ccccc2)(c2ccccc2)C1=O` [(R)-DOXAPRAM], 61%.
For `Nc1nc(NC2CC2)c2ncn([C@H]3C=C[C@@H](CO)C3)c2n1` (single isomer, unassigned) [ABACAVIR], the bioavailability amounted to 86%.
The same measure, in the same setting: under `C[C@H]1c2cccc(O)c2C(=O)C2=C(O)[C@]3(O)C(=O)C(C(N)=O)=C(O)[C@@H](N(C)C)[C@@H]3[C@@H](O)[C@@H]21.O` [DOXYCYCLINE] stands 93%; under `CCCC1O[C@@H]2C[C@H]3[C@@H]4CCC5=CC(=O)C=C[C@]5(C)[C@H]4[C@@H](O)C[C@]3(C)[C@]2(C(=O)CO)O1` (some centres not stated) [BUDESONIDE], 11%; under `N[C@@H](C(=O)N[C@@H]1C(=O)N2C(C(=O)O)=C(Cl)CS[C@H]12)c1ccccc1` [CEFACLOR ANHYDROUS], 90%.
On to `C#C[C@]1(O)CC[C@H]2[C@@H]3CCC4=CC(=O)CC[C@@H]4[C@H]3CC[C@@]21C` [NORETHINDRONE], for which the bioavailability worked out at 64%.
The molecule `CN(C)[C@@H]1C(O)=C(C(N)=O)C(=O)[C@@]2(O)C(O)=C3C(=O)c4c(O)cccc4[C@@](C)(O)[C@H]3[C@H](O)[C@@H]12` [OXYTETRACYCLINE] had a bioavailability of 58%.
Regarding `CC(C)(C)NC[C@H](O)COc1cccc2c1C[C@H](O)[C@H](O)C2` [S-NADOLOL], the bioavailability turned out to be 34%.
`Cc1cccc(Nc2ccncc2S(=O)(=O)NC(=O)NC(C)C)c1` [TORSEMIDE] yielded a bioavailability of 91%.
Consider `CCCc1nc(C(C)(C)O)c(C(=O)O)n1Cc1ccc(-c2ccccc2-c2nnn[nH]2)cc1` [OLMESARTAN], for which the bioavailability was 26%.
In turn, `CC[C@H]1OC(=O)[C@H](C)[C@@H](O[C@H]2C[C@@](C)(OC)[C@@H](O)[C@H](C)O2)[C@H](C)[C@@H](O[C@@H]2O[C@H](C)C[C@H](N(C)C)[C@H]2O)[C@](C)(O)C[C@@H](C)C(=O)[C@H](C)[C@@H](O)[C@]1(C)O` [ERYTHROMYCIN] registered a bioavailability of 35%.
Turning to `CCCN(CCC)CCc1cccc2c1CC(=O)N2` [ROPINIROLE], the bioavailability stood at 55%.
